The subject of this assay is MPTP-lesioned squirrel monkey. Kind of assay: MPTP-lesioned squirrel monkey Parkinsonian model. The format is in vivo, squirrel monkeys. On the procedure:
Twenty four squirrel monkeys, fourteen females and ten males were used in a Parkinsonian model. The twenty-four animals were randomly assigned to one of four treatment groups, with 6 animals per group. The groups consisted of the following: Group A (6 animals) received placebo (water) treatment; Group B (5 animals) received drug nepicastat at 1 mg/kg/day (0.5 mg/kg twice daily); Group C (6 animals) received 4 mg/kg/day (2 mg/kg twice daily); and Group D (6 animals) received 10 mg/kg/day (5 mg/kg twice daily). In Group B, one animal died acutely following MPTP-lesioning, and was not replaced.
Prior to lesioning, animals were subjected to quantitative assessment of spontaneous motor activity using an infrared activity monitor (IRAM) cage. All recording sessions were 60 minutes in length and were carried out for 10 sessions over a period of 2 weeks. The behavior of animals was also assessed by 1 to 3 clinical raters using a parkinsonian clinical rating scale (CRS) once per day (12 noon to 1 pm) for 3 to 5 consecutive days. […] Both the activity monitoring (IRAM) and clinical rating assessments established the mean base-line activity of each animal.
Animals were lesioned by the administration of MPTP at a concentration of 2.0 mg/kg (free-base) via subcutaneous injection to achieve a parkinsonian state. A post-MPTP lesioning behavioral assessment was carried out 2 to 4 weeks after the last MPTP-lesioning. Locomotor activity was monitored by IRAM in 60-minute sessions for 3 to 5 days. Clinical behavior (CAS) was assessed by one to three individuals rating over a period of 3 to 5 days.
Animals were tested for response to L-Dopa and the efficacy of drug nepicastat. Testing was carried out 4 to 12 weeks after the last MPTP dose. L-Dopa was administered at a concentration of either 2.5, 5, or 7.5 mg/kg by oral gavage twice daily (at 10 am and 2 pm) for 7 consecutive days. Behavior was determined by IRAM and CRS. Clinical rating was carried out 60 to 90 minutes following the 10 am morning dose on the last 4 days of treatment. Raters (one to three individuals) were blinded to the different treatment groups. IRAM assessment were preformed for 90 minutes immediately following drug administration at 2 pm on the last 2 to 5 days of drug treatment. There was a minimum 2 day washout period between each treatment dose.
Nepicastat or water (as placebo) was administered for 12 days following a minimum 2 day washout after L-Dopa dosing. Drug was administered twice daily at 10 am and 2 pm by oral gavage. Behavior was rated by IRAM and CRS. The CRS was conducted in the morning, 60 to 90 minutes after the 10 am dose of nepicastat on the last 5 days of drug treatment. Raters (one to three individuals) were blinded to the different treatment groups. IRAM assessments were preformed for 90 minutes immediately following drug administration at 2 pm on the last 5 days of drug treatment.
Eight parkinsonian features were rated in each animal and the total score was derived from the sum of these eight features. For each animal, a single clinical rating score was obtained for each drug dose by averaging the clinical rating scores of all raters (one to three) conducted over the consecutive multiple dosing (with the same dose) days. This average CRS was used for statistical analysis. A lower score was considered a less parkinsonian behavioral state.
Statistical analysis consisted of: (1) comparisons between the average CRS of placebo to nepicastat at 1, 4, and 10 mg/kg/day using the Kruskal-Wallis (non-parametric analysis of variance). This comparison was repeated using the average CRS for each experimental drug concentration corrected by the final post-MPTP ratings for each animal. The corrected clinical scores are clinical scores of experimental drug at each concentration as a ratio of post-MPTP clinical scores. […]

Structures are written as SMILES. “Also recorded” adds a separate entry of the source.

As for `Cl.NCc1c[nH]c(=S)n1[C@H]1CCc2c(F)cc(F)cc2C1` [nepicastat, (S)-5-Aminomethyl-1-(5,7-difluoro-1,2,3,4-tetrahydronaphth-2-yl)-2,3-dihydro-2-thioxo-1H-imidazole hydrochloride], the “activity monitoring (IRAM) vs placebo” value reads like this: (1 mg/kg/day) “slower than placebo treatment”; (4 and 10 mg/kg/day) “no difference”. Further, under “1, 4, 10 mg/kg/day, 12 days, hydrochloride”, the “parkinsonian clinical rating vs placebo” value is reported as “no detectable differences; also recorded: no significant effect in parkinsonian symptoms compared to placebo”. In addition, where the note is “nepicastat 4 and 10 mg/kg/day, hydrochloride”, the “parkinsonian clinical rating vs post-MPTP (pre-treatment) state” value is listed as “significant improvement over the post-MPTP (pre-treatment) state; also recorded: significant effect in parkinsonian symptoms compared to post-MPTP lesioning”.
